This is an account of results in patent publication US9249111B2, “Substituted quinoxalines as B-RAF kinase inhibitors” (NEUPHARMA, INC., priority 2011, dated 2016).

A value given as a limit tells only on which side of the number the result lay.

The target of one assay is T1, BRAF (Homo sapiens, UniProt P15056).
T1 construct: purchased Invitrogen
The assay can be described thus: Z'-LYTE kinase inhibition assay (Invitrogen), BRAF. In kind it is biochemical. The note with it: compound at 1 μM; Z'-LYTE method. As to the method:
(§1) Inhibitory activities of compounds against BRAF or BRAF V600E were measured by Invitrogen using Z′-LYTE® Method as briefly described in the following.
(§2) 4× Test compounds were dissolved in 1% DMSO. […] ATP solutions were diluted to a 4×ATP working concentration in Kinase Buffer (50 mM HEPES pH 7.5, 0.01% BRIJ-35, 10 mM MgCl2, 1 mM EGTA). Reaction started by 30-second shaking of mixture consisting of 2.5 μL4× test compound, 2.5 μL 2× kinase reaction mixture and 2.5 μL 4×ATP Solution on Bar-coded Corning, low volume NBS, black 384-well plate (Corning Cat. #3676). Then the mixture was incubated for 60-minute at room temperature for the kinase reaction, followed by addition of 5 μL of a 1:1024 dilution of development reagent A and 30-second plate shake. The mixture was then incubated for another 60-minute at room temperature for development reaction. Finally fluorescence was read by plate reader. IC50 was calculated by plotting the concentration of compound vs the percentage of inhibition in treated wells using GraphPad Prism 5.

In the next assay the target is T2, BRAF V600E (Homo sapiens, UniProt P15056, V600E).
T2 construct: purchased Invitrogen
Put plainly: Z'-LYTE kinase inhibition assay (Invitrogen), BRAF V600E. The note with it: Z'-LYTE method; for inhibition at 1 µM: compound at 1 μM. In kind it is biochemical. On the procedure: as §1, §2

Another assay has as its system A375 cells. The assay can be described thus: MTT cell growth inhibition assay, A375 cells. Format: cell-based. The settings on record: Homo sapiens, A-375, 72 h compound exposure. As to the method:
(§3) Inhibition of cell growth by compounds was measured using MTT assay (Mosmann, T., Journal of Immunological Methods, 1983, 65, 55-63). Tumor cell lines were purchased from ATCC (American Type Culture Collection, Manassas, Va.). All cell lines were maintained in RPMI 1640 (Hyclone) supplemented with 10% fetal bovine serum (FBS, Hyclone), glutamine (2 mM, Hyclone), and antibiotics (penicillin 100 U/mL and streptomycin 50 μg/mL) at 37° C. in a humidified atmosphere of 5% CO2 in air. Taxol (as a positive control, Sigma) and compounds were dissolved in DMSO (Sigma), and the final concentration of DMSO in the medium was 1%. Tumor cells were plated in 96-well plates at densities of about 4000 cells/well of a 96-well plate and allowed to adhere/grow for 24 h. They were then treated with various concentrations of drug for 72 h. 3-(4,5-Dimethylthiazol-2-yl)-2,5-diphenyltetrazolium bromide (MTT, Sigma) was used to determine the number of viable cells at the time of compound addition and the number of cells remaining after 72 h compound exposure. The number of cells remaining after 72 h was compared to the number of viable cells at the time of compound addition by measuring the absorbance at 570 nm, allowing for the calculation of growth inhibition.
(§4) All concentrations of compounds were tested in triplicate and controls were averaged over 4 wells. IC50 was calculated by plotting the concentration of compound vs the percentage of inhibition in treated wells using GraphPad Prism 5. […] The scale utilized in Table 2 is as follows: […], ++ between 1000 and 5000 nM, and + greater than 5000 nM.

Another assay has as its system A549 cells. The assay can be described thus: MTT cell growth inhibition assay, A549 cells. The settings on record: Homo sapiens, 72 h compound exposure. In kind it is cell-based. On the procedure: as §3, §4

T1 sequence (P15056 whole entry): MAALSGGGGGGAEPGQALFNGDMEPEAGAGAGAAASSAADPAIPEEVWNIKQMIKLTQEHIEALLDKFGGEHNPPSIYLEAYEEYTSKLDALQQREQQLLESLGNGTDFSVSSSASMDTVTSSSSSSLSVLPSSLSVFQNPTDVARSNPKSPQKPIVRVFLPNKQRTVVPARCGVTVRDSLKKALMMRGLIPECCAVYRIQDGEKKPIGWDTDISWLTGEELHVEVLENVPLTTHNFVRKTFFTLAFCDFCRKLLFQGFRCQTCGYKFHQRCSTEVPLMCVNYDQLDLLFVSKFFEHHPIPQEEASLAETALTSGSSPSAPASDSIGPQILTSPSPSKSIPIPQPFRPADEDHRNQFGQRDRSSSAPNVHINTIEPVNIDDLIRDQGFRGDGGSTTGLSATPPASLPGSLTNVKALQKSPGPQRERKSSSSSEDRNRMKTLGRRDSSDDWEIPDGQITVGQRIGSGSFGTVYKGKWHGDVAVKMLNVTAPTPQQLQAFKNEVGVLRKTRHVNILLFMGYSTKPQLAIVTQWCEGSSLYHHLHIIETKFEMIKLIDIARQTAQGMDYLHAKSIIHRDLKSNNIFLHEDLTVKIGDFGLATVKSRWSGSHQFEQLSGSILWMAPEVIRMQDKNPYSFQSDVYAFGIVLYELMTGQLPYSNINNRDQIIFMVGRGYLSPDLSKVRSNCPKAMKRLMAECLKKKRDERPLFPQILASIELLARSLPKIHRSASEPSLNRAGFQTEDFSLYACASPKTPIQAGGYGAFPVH
T2 sequence (P15056 whole entry V600E): as the sequence (P15056 whole entry) above, with V600E counted along it

As to `O=C(c1ccc2nccnc2c1)c1c(F)ccc(OCc2cccc(F)c2)c1F` [Compound C01, (2,6-difluoro-3-((3-fluorobenzyl)oxy)phenyl)(quinoxalin-6-yl)methanone], the inhibition at 1 µM against BRAF and against BRAF V600E was 30 to 89% each time. The half-maximal inhibitory concentration (IC50) in the assay with A375 cells and in the assay with A549 cells was > 5000 nM in each case.
`O=C(c1ccc2nccnc2c1)c1c(F)ccc(OCc2cccc(Cl)c2)c1F` [Compound C02, (3-((3-chlorobenzyl)oxy)-2,6-difluorophenyl)(quinoxalin-6-yl)methanone]: the inhibition at 1 µM on BRAF and against BRAF V600E was 30 to 89% each time. Also, the IC50 in the assay on A375 cells and with A549 cells was > 5000 nM throughout.
As for `O=C(c1ccc2nccnc2c1)c1c(F)ccc(O)c1F` [Compound C03, (2,6-difluoro-3-hydroxyphenyl)(quinoxalin-6-yl)methanone], the IC50 – broadly, the concentration that inhibits the measured activity by half – is < 1000 nM with A375 cells and 1000 to 5000 nM in the assay on A549 cells.
As for `COc1ccc(F)c(C(=O)c2ccc3nccnc3c2)c1F` [Compound C04, (2,6-difluoro-3-methoxyphenyl)(quinoxalin-6-yl)methanone], the results for the inhibition at 1 µM on BRAF and against BRAF V600E were < 30% and 30 to 89%, respectively. Moreover, the half-inhibitory concentration (IC50) in the assay on A375 cells and in the assay with A549 cells was 1000 to 5000 nM throughout.
As to `O=C(c1ccc2ncc(Cl)nc2c1)c1c(F)ccc(O)c1F` [Compound C05, (3-chloroquinoxalin-6-yl)(2,6-difluoro-3-hydroxyphenyl)methanone], the half-inhibitory concentration (IC50) was < 1000 nM with A375 cells and 1000 to 5000 nM in the assay with A549 cells.
`O=C(c1ccc2nccnc2c1)c1c(F)ccc(OCc2ccccc2)c1F` [Compound C06, (3-(benzyloxy)-2,6-difluorophenyl)(quinoxalin-6-yl)methanone]: the inhibition (commonly the change of the read-out against control, counted positive when it falls) at 1 µM at BRAF is 30 to 89%; on BRAF V600E it was > 89%. In addition, the half-maximal inhibitory concentration (IC50) is < 50 nM at BRAF V600E (read-out: IC50 against BRAF V600E), < 1000 nM with A375 cells and < 1000 nM in the assay with A549 cells.
As to `O=C(c1ccc2ncc(-c3cccnc3)nc2c1)c1c(F)ccc(O)c1F` [Compound C07, (2,6-difluoro-3-hydroxyphenyl)(3-(pyridin-3-yl)quinoxalin-6-yl)methanone], the IC50 in the assay with A375 cells and in the assay with A549 cells was 1000 to 5000 nM throughout.
Consider `O=C(c1ccc2ncc(-c3ccccc3)nc2c1)c1c(F)ccc(O)c1F` [Compound C08, (2,6-difluoro-3-hydroxyphenyl)(3-phenylquinoxalin-6-yl)methanone], for which the IC50 was < 1000 nM in the assay with A375 cells and 1000 to 5000 nM in the assay on A549 cells.
For the compound `N#Cc1cnc2ccc(C(=O)c3c(F)ccc(O)c3F)cc2n1` [Compound C09, 7-(2,6-difluoro-3-hydroxybenzoyl)quinoxaline-2-carbonitrile], the IC50 in the assay on A375 cells and with A549 cells was 1000 to 5000 nM each time.
As to `COc1cnc2ccc(C(=O)c3c(F)ccc(O)c3F)cc2n1` [Compound C10, (2,6-difluoro-3-hydroxyphenyl)(3-methoxyquinoxalin-6-yl)methanone], the IC50 in the assay with A375 cells and with A549 cells was 1000 to 5000 nM each time.
